Experimental data from article PMC4724238 (Biochemical and biophysical research communications, 2015).

Experiments:
Experiment in all cases: reduction to DABS-Met, […] min
Assay type in all cases: biochemical
Settings in all cases: no activator
eMsrB = molecular target: T1, eMsrB (Escherichia coli, UniProt P0A746)
T1 sequence (P0A746 2-137): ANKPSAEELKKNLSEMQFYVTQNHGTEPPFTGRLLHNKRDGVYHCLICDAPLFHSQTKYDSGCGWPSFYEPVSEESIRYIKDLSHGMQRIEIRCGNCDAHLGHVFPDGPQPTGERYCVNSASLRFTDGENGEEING

hMsrB2 = hMsrB2 (Homo sapiens, UniProt Q9Y3D2)
hMsrB3 = molecular target: T2, hMsrB3 (Homo sapiens, UniProt Q8IXL7)
T2 sequence (Q8IXL7 1-192 limits assumed): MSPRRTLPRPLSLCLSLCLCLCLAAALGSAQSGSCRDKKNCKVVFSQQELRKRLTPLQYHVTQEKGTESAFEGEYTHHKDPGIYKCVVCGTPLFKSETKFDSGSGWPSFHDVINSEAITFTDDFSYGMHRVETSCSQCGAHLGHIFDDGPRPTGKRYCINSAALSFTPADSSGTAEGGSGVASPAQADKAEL

bMsrA = molecular target: T3, bMsrA (Bos taurus, UniProt P54149)
T3 sequence (P54149 1-233 limits assumed): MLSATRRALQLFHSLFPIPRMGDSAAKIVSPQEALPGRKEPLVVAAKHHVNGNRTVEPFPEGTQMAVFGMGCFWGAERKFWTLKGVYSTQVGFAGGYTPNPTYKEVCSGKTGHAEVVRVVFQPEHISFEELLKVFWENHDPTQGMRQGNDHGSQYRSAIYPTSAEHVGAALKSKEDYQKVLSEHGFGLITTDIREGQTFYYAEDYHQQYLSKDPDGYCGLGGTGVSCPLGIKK

hMsrA (myristoylated) = molecular target: T4, hMsrA (myristoylated) (Homo sapiens, UniProt Q9UJ68)
T4 sequence (Q9UJ68 23-235): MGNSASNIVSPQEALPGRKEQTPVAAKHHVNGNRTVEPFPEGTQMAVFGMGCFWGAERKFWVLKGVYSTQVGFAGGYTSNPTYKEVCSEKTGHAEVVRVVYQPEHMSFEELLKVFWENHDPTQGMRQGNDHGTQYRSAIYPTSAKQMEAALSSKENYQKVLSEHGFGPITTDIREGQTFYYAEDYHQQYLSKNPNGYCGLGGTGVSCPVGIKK

hMsrA = molecular target: T5, hMsrA (Homo sapiens, UniProt Q9UJ68)
T5 sequence (Q9UJ68 23-235): T4 sequence (Q9UJ68 23-235)

eMsrA = molecular target: T6, eMsrA (Escherichia coli, UniProt P0A744)
T6 sequence (P0A744 2-212): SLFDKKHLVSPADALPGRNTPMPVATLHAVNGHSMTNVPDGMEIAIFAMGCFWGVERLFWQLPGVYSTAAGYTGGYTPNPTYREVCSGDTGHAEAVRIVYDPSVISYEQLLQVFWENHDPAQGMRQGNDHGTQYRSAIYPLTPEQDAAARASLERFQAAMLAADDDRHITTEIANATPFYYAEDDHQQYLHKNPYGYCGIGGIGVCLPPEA

Sequence of hMsrB2 (Q9Y3D2 whole entry): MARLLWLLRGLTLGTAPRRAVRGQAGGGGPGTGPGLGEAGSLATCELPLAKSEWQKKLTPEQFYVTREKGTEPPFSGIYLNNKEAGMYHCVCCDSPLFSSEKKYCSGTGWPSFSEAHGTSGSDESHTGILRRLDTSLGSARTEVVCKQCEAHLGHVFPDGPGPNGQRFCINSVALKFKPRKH

SMILES | reduction to DABS-Met, 30 min (eMsrB) | reduction to DABS-Met, 30 min (hMsrB2) | reduction to DABS-Met, 30 min (hMsrB3) | reduction to DABS-Met, 30 min (bMsrA) | reduction to DABS-Met, 30 min (hMsrA (myristoylated)) | reduction to DABS-Met, 30 min (hMsrA) | reduction to DABS-Met, 30 min (eMsrA)
CN(C)c1ccc(N=Nc2ccc(S(=O)(=O)N[C@@H](CC[S@@+](C)[O-])C(=O)O)cc2)cc1 [DABS-Met-R-(o)] | either DABS-Met-S-(o) or DABS-Met-R-(o), to measure the activity of MsrA and MsrB, respectively | either DABS-Met-S-(o) or DABS-Met-R-(o), to measure the activity of MsrA and MsrB, respectively | either DABS-Met-S-(o) or DABS-Met-R-(o), to measure the activity of MsrA and MsrB, respectively | – | – | – | –
CN(C)c1ccc(N=Nc2ccc(S(=O)(=O)N[C@@H](CC[S@+](C)[O-])C(=O)O)cc2)cc1 [DABS-Met-S-(o)] | – | – | – | uses a synthetic substrate, either DABS-Met-S-(o) or DABS-Met-R-(o), to measure the activity of MsrA | uses a synthetic substrate, either DABS-Met-S-(o) or DABS-Met-R-(o), to measure the activity of MsrA | uses a synthetic substrate, either DABS-Met-S-(o) or DABS-Met-R-(o), to measure the activity of MsrA | uses a synthetic substrate, either DABS-Met-S-(o) or DABS-Met-R-(o), to measure the activity of MsrA
